Non-standard residues stand in square brackets, D forms with d. No end group written: not given here. bAib = not defined here; Aib = CC(C)(N)C(=O)O
tested on: Normal Kunming (KM) mice; assay: multiple OGTT (mOGTT): hypoglycemic duration after a single administration; type: in vivo; details: monomeric peptides, single injection at the same dose (1.126 nmol), subcutaneous
Source text: • 1. Methods: Normal Kunming (KM) mice (purchased from Guangdong Animal Center) were used for oral glucose tolerance test (OGTT) to obtain the hypoglycemic activity and durability of drug. […] The blood glucose meter and blood glucose test paper were from Bayer […]. The average blood glucose of each group was used as an evaluation standard: When the average blood glucose of experimental group was higher than that of the NaCl control group for two times, the measurement stopped and the hypoglycemic period compared to the blank control group was the effective duration. • 2. Results • 2.1 single OGTTs: after a single administration, the mice were orally administered glucose once and measured the blood glucose from the tail blood at 0, 10, 20, 40, 60 and 120 min. […] The duration of each monomer group was about 1⁄2-1⁄4 of the duration of its corresponding dimer group. […] Therefore, the 2G3 peptide was selected for treating type II diabetes (T2D) in vivo and subsequent experiments.

In order of rising “Hypoglycemic” value:
1. His-Ala-Glu-Gly-Thr-Phe-Thr-Ser-Asp-Val-Cys-Ser-Tyr-Leu-Glu-Gly-Gln-Ala-Ala-Lys[N-ϵ-(N-α-Palmitoyl)]-Glu-Phe-Ile-Ala-Trp-Leu-Val-Arg-Gly-Arg-Gly-OH (HAEGTFTSDVCSYLEGQAAXEFIAWLVRGRG; palmitoyl on Lys; C-terminal acid; Sequence is synthesized; (20)..(20) Xaa is 26Lys[N-e-(N-a-palmitoyl-L-g-glutamyl)]; (31)..(31) C-terminal) [G4 series 24]  3 days
2. His-aAib-Glu-Gly-Thr-Phe-Thr-Ser-Asp-Val-Ser-Cys-Tyr-Leu-Glu-Gly-Gln-Ala-Ala-Lys-Glu-Phe-Ile-Ala-Trp-Leu-Val-Arg-aAib-Arg-NH2 (H[Aib]EGTFTSDVSCYLEGQAAKEFIAWLVR[Aib]R-NH2; also: disulfide-linked homodimer via Cys) [G7 series 51]  3 days
3. His-Ala-Glu-Gly-Thr-Phe-Thr-Ser-Asp-Val-Cys-Ser-Tyr-Leu-Glu-Gly-Gln-Ala-Ala-Lys[N-ϵ-(N-α-oleoyl-L-γ-glutamyl)]-Glu-Phe-Ile-Ala-Trp-Leu-Val-Arg-Gly-Arg-Gly-OH (HAEGTFTSDVCSYLEGQAAXEFIAWLVRGRG; oleoyl-γ-glutamyl on Lys; C-terminal acid; Sequence is synthesized; (20)..(20) Xaa is 26Lys[N-e-(N-a-oleoyl-L-g-glutamyl)]; (31)..(1) C-terminal) [G2 series 9]  3 days
4. His-Ala-Glu-Gly-Thr-Phe-Thr-Ser-Asp-Val-Ser-Cys-Tyr-Leu-Glu-Gly-Gln-Ala-Ala-Lys-Glu-Phe-Ile-Ala-Trp-Leu-Val-Arg-Gly-Arg-NH-PEG (HAEGTFTSDVSCYLEGQAAKEFIAWLVRGR; not fully specified; C-terminal PEG; Sequence is synthesized; (30)..(30) N-terminal is modified with PEG) [G9 series 71]  3 days
5. His-aAib-Glu-Gly-Thr-Phe-Thr-Cys-Asp-Val-Ser-Ser-Tyr-Leu-Glu-Gly-Gln-Ala-Ala-Lys[N-ϵ-(N-α-Palmitoyl-γ-glutamyl)]-Glu-Phe-Ile-Ala-Trp-Leu-Val-Arg-Gly-Arg-Gly-NH2 (HXEGTFTCDVSSYLEGQAAXEFIAWLVRGRG; Aib; palmitoyl-gamma-Glu on Lys; C-terminal amide; Sequence is synthesized; (2)..(2) Xaa is aAib; (20)..(20) Xaa is 26Lys[N-e-(N-a-palmitoyl-L-g-glutamyl)]; (31)..(31) N-terminal) [G8 series 61]  4 days
6. His-Ala-Glu-Gly-Thr-Phe-Thr-Ser-Asp-Val-Ser-Cys-Tyr-Leu-Glu-Gly-Gln-Ala-Ala-Lys[N-ϵ-(N-α-oleoyl)]-Glu-Phe-Ile-Ala-Trp-Leu-Val-Arg-Gly-Arg-Gly-OH (HAEGTFTSDVSCYLEGQAAXEFIAWLVRGRG; not fully specified; oleoyl on Lys; C-terminal acid; Sequence is synthesized; (20)..(20) Xaa is 26Lys[N-e-(N-a-oleoyl-L-g-glutamyl)]; (31)..(31) C-terminal) [G4 series 32]  5 days
7. His-βAib-Glu-Gly-Thr-Phe-Thr-Ser-Asp-Val-Ser-Cys-Tyr-Leu-Glu-Gly-Gln-Ala-Ala-Lys[N-ϵ-(N-α-oleoyl)]-Glu-Phe-Ile-Ala-Trp-Leu-Val-Arg-Gly-Arg-Gly-NH2 (HXEGTFTSDVSCYLEGQAAXEFIAWLVRGRG; not fully specified; beta-Aib; oleoyl on Lys side chain; C-terminal amide; Sequence is synthesized; (2)..(2) Xaa is bAib; (20)..(20) Xaa is 26Lys[N-e-(N-a-oleoyl-L-g-glutamyl)]; (31)..(31) N-terminal) [G4 series 38]  6 days
8. His-Ala-Glu-Gly-Thr-Phe-Thr-Ser-Asp-Val-Ser-Cys-Tyr-Leu-Glu-Gly-Gln-Ala-Ala-Lys[N-ϵ-(N-α-oleoyl)]-Glu-Phe-Ile-Ala-Trp-Leu-Val-Arg-Gly-Arg-Gly-NH2 (HAEGTFTSDVSCYLEGQAAXEFIAWLVRGRG; not fully specified; oleoyl on Lys; C-terminal amide; Sequence is synthesized; (20)..(20) Xaa is 26Lys[N-e-(N-a-oleoyl-L-g-glutamyl)]; (31)..(31) N-terminal) [G4 series 33]  7 days
9. His-aAib-Glu-Gly-Thr-Phe-Thr-Ser-Asp-Val-Ser-Cys-Tyr-Leu-Glu-Gly-Gln-Ala-Ala-Lys[N-ϵ-(N-α-Palmitoyl-L-γ-glutamyl)]-Glu-Phe-Ile-Ala-Trp-Leu-Val-Arg-Gly-Arg-Gly-NH2 (HXEGTFTSDVSCYLEGQAAXEFIAWLVRGRG; Aib; palmitoyl-gamma-Glu on Lys; C-terminal amide; Sequence is synthesized; (2)..(2) Xaa is aAib; (20)..(20) Xaa is 26Lys[N-e-(N-a-palmitoyl-L-g-glutamyl)]; (31)..(31) N-terminal) [G6 series 48]  7 days
10. His-aAib-Glu-Gly-Thr-Phe-Thr-Ser-Asp-Val-Ser-Cys--Tyr-Leu-Glu-Gly-Gln-Ala-Ala-Lys[N-ϵ-(N-α-oleoyl-L-γ-glutamyl)]-Glu-Phe-Ile-Ala-Trp-Leu-Val-Arg-Gly-Arg-Gly-NH2 (HXEGTFTSDVSCYLEGQAAXEFIAWLVRGRG; Aib; oleoyl-gamma-Glu on Lys; C-terminal amide; Sequence is synthesized; (2)..(2) Xaa is aAib; (20)..(20) Xaa is 26Lys[N-e-(N-a-oleoyl-L-g-glutamyl)]; (31)..(31) N-terminal) [G6 series 47]  8 days

same assay, conditions: single injection at the same dose (1.126 nmol), subcutaneous

In order of rising “Hypoglycemic duration” value:
1. 2G8 series 67: disulfide-linked homodimer of monomer SEQ ID NO: 67 (H[bAib]EGTFTCDVSSYLEGQAAKEFIAWLVR[bAib]R; reading uncertain; also: disulfide-linked homodimer of two chains, disulfide at 8, other end not in the chain)  3 days
2. 2G8 series 59: disulfide-linked homodimer of monomer SEQ ID NO: 59 (HAEGTFTCDVSSYLEGQAAXEFIAWLVRGRG; disulfide-linked homodimer; Sequence is synthesized; (20)..(20) Xaa is 26Lys[N-e-(N-a-oleoyl-L-g-glutamyl)]; (31)..(31) N-terminal)  5 days
3. 2G3 series 21: disulfide-linked homodimer of monomer SEQ ID NO: 21 (HAEGTFTSDVSCYLEGQAAXEFIAWLVRGRG; disulfide-linked homodimer; Sequence is synthesized; (20)..(20) Xaa is 26Lys[N-e-(N-a-oleoyl-L-g-glutamyl)]; (31)..(31) C-terminal)  14 days
4. 2G4 series 35: disulfide-linked homodimer of monomer SEQ ID NO: 35 (HAEGTFTSDVSCYLEGQAAXEFIAWLVRGRG; not fully specified; disulfide-linked homodimer; Sequence is synthesized; (20)..(20) Xaa is 26Lys[N-e-(N-a-palmitoyl-L-g-glutamyl)]; (31)..(31) N-terminal)  15 days

— patent publication US20240150423A1, “GLP-1 ANALOGUE-MODIFIED DIMERS WITH DIFFERENT CONFIGURATIONS, PREPARATION METHOD THEREOF, AND APPLICATION THEREOF IN TREATMENT OF TYPE II DIABETES” (Nanjing Finepeptide Biopharmaceutical Co.,Ltd, priority 2019, published 2024)
